Data published in the NIST ThermoML archive (doi:10.1021/je400919u).

Conditions: Liquid, Closed cell (Static) method

FCC(F)(F)F [1,1,1,2-tetrafluoroethane]
Conditions | vapor or sublimation pressure [kPa]
258.2 K | 162
262.2 K | 193
272.2 K | 286
282.6 K | 411
292.9 K | 569
302.7 K | 763

FC(F)(F)C1(F)OC1(F)F (stereo unspecified) [2,2,3-trifluoro-3-(trifluoromethyl)oxirane]
Conditions | vapor or sublimation pressure [kPa]
273 K | 309
278 K | 366
283 K | 431
288 K | 505
293 K | 588

O=C=O [carbon dioxide]
Conditions | vapor or sublimation pressure [kPa]
273 K | 3387
283 K | 4406
293 K | 5627
298.1 K | 6323

FC(F)Cl [chlorodifluoromethane]
Conditions | vapor or sublimation pressure [kPa]
273 K | 495
275 K | 528
277 K | 562
279 K | 599
281 K | 637
283 K | 677
285.1 K | 718
286.9 K | 761
289 K | 807
291.1 K | 855
295.1 K | 955
